Test results as given in article PMC11766867, “Novel 2-Thiazolylhydrazone with Druggable Properties for Antifungal Application” (Journal of Fungi, 2025).
In brackets after ≈: the same amount, converted by molar mass. Like-named read-outs stand apart in the source and are kept apart here.

How the values were obtained:
chorioallantoic membrane = assay: HET-CAM assay (Hen's Egg Test on the Chorioallantoic Membrane), German protocol; type: in vivo, Gallus gallus domesticus; details: RW3 at 100 µM; for Irritation Score: 300 µL on chorioallantoic membrane, 300 s, mean of six eggs; for Classification (irritation potential): HET-CAM, German protocol
Description: Gallus gallus domesticus eggs (n = 3) at the eighth day of embryonic development were incubated at 37 ± 2 °C and 50% humidity until the test. On the tenth day, the solutions of RW3 (100 µM), 1% DMSO in saline (diluent), 0.1 mol/L NaOH (positive control), and saline solution (negative control) were placed on the chorioallantoic membrane. Following the application of 300 µL of each solution, according to the German protocol, the changes in the membrane were recorded for 300 s, indicating the time of onset of each observed phenomenon (hemorrhage, lysis, and coagulation) and using the following formula to calculate the Irritation Score (IS) (Equation (1)). Each experiment was repeated two times.IS = (301 − sH)/300 × 5 + (301 − sL)/300 × […] + (301 − sC)/300 × 9,(1) where H = hemorrhage, L—lysis, C = coagulation, and s = start second.
Additionally, to assess the possibility of irritation caused by RW3, the Hen’s Egg Test on the Chorioallantoic Membrane (HET-CAM) was performed. The HET-CAM assay is an in vivo semiquantitative test to evaluate the anti-inflammatory potential and anti-irritant properties, as well as the ocular toxicity of compounds/formulations. The benefits of this test include its simplicity, rapid execution, ease of use, and relatively low cost.

[1] = test system: Candidozyma (Candida) auris COLO 01; assay: organism not typed; type: cell-based; details: 35 °C, 48 h, visual endpoint; for MIC: read-out: Minimal Inhibitory Concentration (MIC) C. auris
Description: (§1) Broth microdilution testing was conducted following the guidelines in the CLSI document M27-A3 (2008) with modifications. Briefly, the following yeast were used in the present study: C. albicans SC5314, C. tropicalis ATCC 750, Candidozyma (Candida) auris COLO 01, C. parapsilosis ATCC 22019, Pichia kudravzevii (C. krusei) ATCC 20298, C. gattii ATCC 24065, C. neoformans ATCC 24067, and S. brasiliensis (189). All fungus strains were stored at a temperature of −80 °C. Before conducting the experiments, the strains were cultivated on Sabouraud dextrose agar (HiMedia, Mumbai, India) at 35 °C to ensure their purity and viability. The yeast phase of S. brasiliensis was grown on brain–heart infusion agar (BHI; Difco, Detroit, MI, USA) with two successive passages of 7 days at 35 °C and CO2 5% [11]. The compounds were tested at concentrations of 0.125–250 µg/mL. For comparative antifungal controls, fluconazole (Sigma-Aldrich, St. Louis, MO, USA), itraconazole (Sigma-Aldrich, St. Louis, MO, USA), and caspofungine (Sigma-Aldrich, St. Louis, MO, USA) were included. The plates were incubated at 35 °C for 48 h for yeast and for 7 days for S. brasiliensis at 35 °C and CO2 5%. The tests were performed in triplicate. The endpoints were determined visually by comparison with the endpoints of the drug-free growth-control well. The value of the minimum inhibitory concentration (MIC) was defined as the lowest extract concentration at which the well was optically clear and was expressed in µg/mL.

C. albicans SC5314 = assay: Broth microdilution MIC (CLSI M27-A3 with modifications); type: cell-based; details: Candida albicans, 35 °C, 48 h, visual endpoint, read-out: Minimal Inhibitory Concentration (MIC) C. albicans
Description: as §1

C. gattii ATCC 24065 = assay: as above; type: cell-based; details: Cryptococcus gattii, ATCC24065; 35 °C, 48 h, visual endpoint; read-out: Minimal Inhibitory Concentration (MIC) C. gattii
Description: as §1

C. neoformans ATCC 24067 = assay: as above; type: cell-based; details: Cryptococcus neoformans, ATCC24067; 35 °C, 48 h, visual endpoint; read-out: Minimal Inhibitory Concentration (MIC) C. neoformans
Description: as §1

[2] = test system: C. parapsilosis ATCC 22019; assay: as above; type: cell-based; details: Lodderomyces parapsilosis, ATCC22019; 35 °C, 48 h, visual endpoint; read-out: Minimal Inhibitory Concentration (MIC) C. parapsilosis
Description: as §1

C. tropicalis ATCC 750 = assay: as above; type: cell-based; details: Candida tropicalis, ATCC750; 35 °C, 48 h, visual endpoint; read-out: Minimal Inhibitory Concentration (MIC) C. tropicalis
Description: as §1

[3] = test system: Pichia kudravzevii (C. krusei) ATCC 20298; assay: as above; type: cell-based; details: ATCC20298, 35 °C, 48 h, visual endpoint, read-out: Minimal Inhibitory Concentration (MIC) P. kudravzevii
Description: as §1

S. brasiliensis (189) = assay: Broth microdilution MIC (CLSI M27-A3 with modifications), yeast phase; type: cell-based; details: Sporothrix brasiliensis, 168 h, 7 days at 35 °C and CO2 5%, read-out: Minimal Inhibitory Concentration (MIC) S. brasiliensis
Description: as §1, with “The value of the minimum inhibitory concentration (MIC) was defined as the lowest extract concentration at which the well was optically clear and was expressed in µg/mL.” left out

[4] = Saturation shake-flask solubility method; type: physicochemical; details: for solubility at 24 h: aqueous USP buffer, thermodynamic from solid, n = 3, read-out: Average Solubility mg/mL (±SD)
Description: The equilibrium solubility of RW3 samples was assessed using the shake-flask method. The samples were dispersed in buffers described in the United States Pharmacopeia at pH values of 2.0, 4.5, and 6.8. For each reported solubility result, three independent shake-flask experiments were carried out in parallel. For each experiment, the solid sample was added carefully using a spatula to 2 mL of the aqueous buffer in a glass vial, while stirring, until a heterogeneous system (solid sample and liquid) was obtained. The solution containing solid excess of the sample was then capped, and stirred at 37 °C, 100 rpm, for 24 h in orbital shaker (Tecnal, Campinas, Brazil). An aliquot of 1 mL of the suspension was centrifuged, and the supernatant was then collected and filtered through a 0.2 µm PVDF filter. The resulting solution was then diluted 200× in the mobile phase, and the concentration of the sample in each aliquot was measured by the HPLC method. The RW3 concentrations were determined by injections of 10 µL of the samples via HPLC, using a Waters Alliance system (New Castle, DE, USA). Chromatographic separations were obtained using a PhenoSphere-NEXT® 5 µm C18 column (150 mm; 4,6 mm; Phenomenex®, Torrance, CA, USA) at 40° C. The mobile phase (1 mL/min) was composed of phosphate buffer 20 mM pH 4.0 and acetonitrile (50:50 v/v). The wavelength was set at 308 nm. The HPLC method employed was evaluated for linearity, precision, accuracy, and selectivity.
The determination of the solubility under physiological conditions, particularly considering the different pH levels throughout the gastrointestinal tract, is one of the most important biopharmaceutical parameters that must be generated during the early stages of developing a new drug for oral administration. In this study, the solubility determination of RW3 was carried out using the miniaturized shake flask test, as only a small amount of the compound under investigation was available. In the literature, there are publications that have successfully employed the miniaturized test.

[5] = In vitro Caco-2 cytotoxicity (MTT, ISO 10993-5); type: cell-based, human; details: human, Caco-2 cells, 4 h, MTT, read-out: cell viability
Description: (§2) In vitro cytotoxicity assays were carried out following the protocol outlined in the ISO 10993-5 guideline (ISO, 2022). The human colon carcinoma cell line, Caco-2 cells (from ATCC), were cultured in 96-well plates for 24 h at a seeding density of 2 × 10^4 cells/well. The RW3 compound was dissolved in DMEM without phenol to prepare samples of 10, 25, and 50 µg/mL concentrations. Six replicates of each concentration for RW3 were assessed. This range of concentrations was chosen for reasons associated with the subsequent permeability tests. The experiments began by replacing the culture medium in each well with 100 µL of sample or control solutions, followed by a 4 h incubation at 37 °C in a CO2 incubator. Then, the solutions in each well were aspirated, and the cells were further incubated for 2 h with 30 µL of MTT solution (5 mg/mL, Sigma–Aldrich Corp., St. Louis, MO, USA, in DMEM and PBS buffer, 9:1 v/v). Next, formazan crystals were solubilized with 70 µL of isopropyl alcohol acidified with hydrochloric acid and quantified spectrophotometrically at 570 and 690 nm (Spectra Fluor plate reader, Tecan, Grödig, Austria). Cell viability was calculated based on the measured absorbance relative to the absorbance of the cells exposed to the negative controls (DMEM), which represented 100% cell viability, and for the positive control, we employed DMSO 50% in DMEM, which represented 0% cell viability.

Caco-2 cells [6] = assay: In vitro Caco-2 cytotoxicity (MTT, ISO 10993-5); type: cell-based, human; details: 10, 25 and 50 µg/mL; non-cytotoxic if viability exceeds 70% (ISO 10993-5)
Description: as §2

[7] = In vitro Caco-2 permeability assay; type: in vitro ADME, human; details: human, Caco-2
Description: (§3) The Caco-2 cells (from ATCC) were cultured in 12-well Transwell® (Corning Incorporated, New York, NY, USA) insert filters for 21 days at a seeding density of 5 × 10^4 cells/cm^2 to achieve confluence and differentiation. The integrity of the monolayer was examined by measuring the transepithelial electrical resistance (TEER) with an epithelial voltammeter Millicell-ERS (Merck SA—German, Darmstadt, Germany). Only cell monolayers with a TEER above […] were used for the transport assays.
(§4) Transport experiments were conducted by adding 10 µg/mL RW3 in HBSS buffer at pH 6.8 to the apical compartments of the Transwell® plates (Corning, Corning, NY, USA), while the basolateral buffer was maintained at pH 7.4. The plates were agitated in an orbital shaker at 37 °C (100 rpm). Samples (100 µL) were collected from both the basolateral and apical sides at 30, 60, 90, 120, and 180 min. The apparent permeability coefficients (Papp, cm/s) were calculated using the Equation (2):Papp = […](2) where VR is the volume of the receiver compartment (basolateral or apical), DQ/Dt is the linear appearance rate of the compound on the receiver chamber (in ng/cm^3/s), A is the membrane surface area (cm^2), and C0 is the initial concentration in the donor compartment (ng/cm^3). This calculation requires that the sink conditions are fulfilled; therefore, only receiver concentrations below 10% of the donor concentration were employed in the calculations.

Caco-2 cells [8] = assay: In vitro Caco-2 permeability assay; type: in vitro ADME, human; details: high permeability: Papp > 10 × 10^−6 cm/s
Description: as §3, §4

Row | Compound | Irritation Score (chorioallantoic membrane) | Classification (irritation potential) (chorioallantoic membrane) | MIC (C. albicans SC5314) | MIC (C. gattii ATCC 24065) | MIC (C. neoformans ATCC 24067) | MIC [2] | MIC (C. tropicalis ATCC 750) | MIC [3] | MIC [1] | MIC (S. brasiliensis (189)) | other results
1 | [Na+].[OH-] [0.1 M NaOH, NaOH, reference compound] | 12.00 | Severe irritant | – | – | – | – | – | – | – | – | –
2 | CC[C@H](C)C[C@H](C)CCCCCCCCC(=O)N[C@H]1C[C@@H](O)[C@@H](NCCN)NC(=O)[C@@H]2[C@@H](O)CCN2C(=O)[C@H]([C@H](O)CCN)NC(=O)[C@H]([C@H](O)[C@@H](O)c2ccc(O)cc2)NC(=O)[C@@H]2C[C@@H](O)CN2C(=O)[C@H]([C@@H](C)O)NC1=O [Caspofungin, caspofungine] | – | – | – | – | – | – | – | – | – | – | Minimal Inhibitory Concentration (MIC) C. auris [1]: 0.05 µg/mL
3 | OC(Cn1cncn1)(Cn1cncn1)c1ccc(F)cc1F [Fluconazole, fluconazole, reference compound] | – | – | 0.5 µg/mL (≈ 1.63 µM) | 2 µg/mL (≈ 6.53 µM) | 2 µg/mL (≈ 6.53 µM) | 1 µg/mL (≈ 3.27 µM) | 0.25 µg/mL (≈ 0.816 µM) | 32 µg/mL (≈ 104 µM) | 64 µg/mL (≈ 209 µM) | – | –
4 | CCC(C)n1ncn(-c2ccc(N3CCN(c4ccc(OCC5COC(Cn6cncn6)(c6ccc(Cl)cc6Cl)O5)cc4)CC3)cc2)c1=O (stereo not drawn) [Itraconazole, itraconazole, reference compound] | – | – | – | – | – | – | – | – | – | 0.5 µg/mL (≈ 0.709 µM) | –
5 | CCOC(=O)Cc1csc(N/N=C(\C)C(=O)O)n1 [RW3, (E)-2-(2-(4-(2-Ethoxy-2-oxoethyl)thiazol-2-yl)hydrazineylidene)-Propanoic Acid] | 0.76 | Non-irritant | 31.3 µg/mL (≈ 115 µM) | 7.8 µg/mL (≈ 28.8 µM) | 3.9 µg/mL (≈ 14.4 µM) | 125 µg/mL (≈ 461 µM) | 125 µg/mL (≈ 461 µM) | 15.6 µg/mL (≈ 57.5 µM) | 15.6 µg/mL (≈ 57.5 µM) | 15.6 µg/mL (≈ 57.5 µM) | solubility at 24 h ([4]; aqueous buffer, buffer pH 4.5, 37 °C): 1.01 ± 0.01 mg/mL (≈ 3720 µM); solubility at 24 h ([4]; aqueous buffer, buffer pH 6.8, 37 °C): 2.76 ± 0.09 mg/mL (≈ 10200 µM); solubility at 24 h ([4]; simulated gastric fluid, buffer pH 2.0, 37 °C): 0.67 ± 0.001 mg/mL (≈ 2470 µM); maximum daily dose borderline for high solubility classification (BCS, dose/S0 ratio less than 250) ([4]; extrapolated from lowest solubility (pH 2.0)): 168 mg; viability at 4 h, 10 µg/mL ([5]; Caco-2, 10 µg/mL): 100%; viability at 4 h, 25 µg/mL ([5]; Caco-2, 25 µg/mL): 88%; viability at 4 h, 50 µg/mL ([5]; Caco-2, 50 µg/mL): 86%; cytotoxic effects on the Caco-2 cell line (Caco-2 cells [6]): no cytotoxic effects; Papp A→B at 180 min, 10 µg/mL ([7]; apical−basolateral, 10 µg/mL, apical pH 6.8, basolateral pH 7.4, n = 3): 23.1 ± 9.69 ×10⁻⁶ cm/s; Papp B→A at 180 min, 10 µg/mL ([7]; basolateral−apical, 10 µg/mL, n = 3): 17.7 ± 7.19 ×10⁻⁶ cm/s; efflux ratio at 180 min, 10 µg/mL ([7]; read-out: Ratio Efflux Papp B-A/Papp A-B): 0.76; permeability characterization (BCS) (Caco-2 cells [8]): high permeability compound
